The record followed here is patent publication US20210009564A1, “CALPAIN MODULATORS AND THERAPEUTIC USES THEREOF” (BLADE THERAPERTICS, INC., priority 2018, published 2021).

Some results are limits rather than exact numbers.

In one assay the target is T1, Human Calpain 1/NS1 (Homo sapiens, UniProt P07384).
T1 sequence (P07384 1-714): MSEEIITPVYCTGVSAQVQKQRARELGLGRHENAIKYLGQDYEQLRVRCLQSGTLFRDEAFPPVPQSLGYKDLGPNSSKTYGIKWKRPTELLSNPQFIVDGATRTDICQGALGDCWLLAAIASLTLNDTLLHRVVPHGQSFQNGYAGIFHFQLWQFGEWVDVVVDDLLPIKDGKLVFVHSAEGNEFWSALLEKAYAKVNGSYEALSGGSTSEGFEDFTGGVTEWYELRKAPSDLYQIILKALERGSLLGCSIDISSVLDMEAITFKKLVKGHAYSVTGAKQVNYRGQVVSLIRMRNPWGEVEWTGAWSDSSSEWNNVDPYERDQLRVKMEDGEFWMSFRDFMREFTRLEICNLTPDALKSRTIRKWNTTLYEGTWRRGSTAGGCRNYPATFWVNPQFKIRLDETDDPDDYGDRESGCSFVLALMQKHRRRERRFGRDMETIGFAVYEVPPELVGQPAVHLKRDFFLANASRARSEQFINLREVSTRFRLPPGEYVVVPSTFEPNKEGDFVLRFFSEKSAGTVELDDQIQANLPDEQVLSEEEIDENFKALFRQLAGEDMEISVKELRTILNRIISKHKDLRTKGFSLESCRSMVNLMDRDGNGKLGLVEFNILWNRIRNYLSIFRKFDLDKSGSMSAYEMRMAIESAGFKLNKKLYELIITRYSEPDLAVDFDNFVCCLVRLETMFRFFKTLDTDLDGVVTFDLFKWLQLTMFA
T1 sequence (P04632 1-268 partner): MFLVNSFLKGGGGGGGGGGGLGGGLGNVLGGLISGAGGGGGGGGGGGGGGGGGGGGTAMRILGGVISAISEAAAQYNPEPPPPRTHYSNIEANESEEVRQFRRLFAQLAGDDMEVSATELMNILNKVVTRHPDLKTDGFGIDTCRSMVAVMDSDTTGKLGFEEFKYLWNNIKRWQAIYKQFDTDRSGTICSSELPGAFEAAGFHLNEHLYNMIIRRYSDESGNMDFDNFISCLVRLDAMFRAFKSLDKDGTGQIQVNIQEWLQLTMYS
Kind of assay: Calpain inhibition, continuous fluorescence (FRET substrate) assay, calpain 1. The assay is classed as biochemical. The settings on record: SensoLyte 520 FRET substrate, 25C. The method, boiled down: (§1)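 Calpains preincubated with serially diluted inhibitors at 25 °C in 50 mM Tris pH 7.5, 100 mM NaCl, 1 mM DTT; CaCl2 plus 5-FAM/QXL 520 FRET substrate started the reaction. Fluorescence (490/520 nm) read 10 min; rates from 1-5 min slopes, IC50 from 4-parameter logistic fit.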

The target of the next assay is T2, Human Calpain 2/NS1 (Homo sapiens, UniProt P17655).
T2 sequence (P17655 1-700): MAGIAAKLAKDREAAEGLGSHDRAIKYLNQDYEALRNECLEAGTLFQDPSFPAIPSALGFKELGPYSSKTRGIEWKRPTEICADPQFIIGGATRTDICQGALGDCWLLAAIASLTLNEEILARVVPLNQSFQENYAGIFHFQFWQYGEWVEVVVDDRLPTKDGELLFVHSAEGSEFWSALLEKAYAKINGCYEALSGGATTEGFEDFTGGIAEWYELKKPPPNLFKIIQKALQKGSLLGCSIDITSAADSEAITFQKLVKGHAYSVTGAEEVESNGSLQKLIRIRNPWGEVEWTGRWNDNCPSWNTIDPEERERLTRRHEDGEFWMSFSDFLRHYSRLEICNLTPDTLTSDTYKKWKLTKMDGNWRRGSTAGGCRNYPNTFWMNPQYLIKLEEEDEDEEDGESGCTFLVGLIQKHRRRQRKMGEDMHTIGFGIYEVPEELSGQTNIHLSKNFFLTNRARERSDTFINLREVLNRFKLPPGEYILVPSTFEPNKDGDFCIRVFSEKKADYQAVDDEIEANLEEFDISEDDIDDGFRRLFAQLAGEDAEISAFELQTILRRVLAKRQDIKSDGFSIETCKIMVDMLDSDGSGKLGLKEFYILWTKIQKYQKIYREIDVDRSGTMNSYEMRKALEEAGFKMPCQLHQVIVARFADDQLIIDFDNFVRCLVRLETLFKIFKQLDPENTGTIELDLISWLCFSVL
T2 sequence (P04632 1-268 partner): T1 sequence (P04632 1-268 partner)
Put plainly: Calpain inhibition, continuous fluorescence (FRET substrate) assay, calpain 2. The settings on record: SensoLyte 520 FRET substrate, 25C. The assay is classed as biochemical. The essentials:
as §1

Another assay deals with T3, Human Calpain 9/NS1 (Homo sapiens, UniProt O14815).
T3 sequence (O14815 1-690): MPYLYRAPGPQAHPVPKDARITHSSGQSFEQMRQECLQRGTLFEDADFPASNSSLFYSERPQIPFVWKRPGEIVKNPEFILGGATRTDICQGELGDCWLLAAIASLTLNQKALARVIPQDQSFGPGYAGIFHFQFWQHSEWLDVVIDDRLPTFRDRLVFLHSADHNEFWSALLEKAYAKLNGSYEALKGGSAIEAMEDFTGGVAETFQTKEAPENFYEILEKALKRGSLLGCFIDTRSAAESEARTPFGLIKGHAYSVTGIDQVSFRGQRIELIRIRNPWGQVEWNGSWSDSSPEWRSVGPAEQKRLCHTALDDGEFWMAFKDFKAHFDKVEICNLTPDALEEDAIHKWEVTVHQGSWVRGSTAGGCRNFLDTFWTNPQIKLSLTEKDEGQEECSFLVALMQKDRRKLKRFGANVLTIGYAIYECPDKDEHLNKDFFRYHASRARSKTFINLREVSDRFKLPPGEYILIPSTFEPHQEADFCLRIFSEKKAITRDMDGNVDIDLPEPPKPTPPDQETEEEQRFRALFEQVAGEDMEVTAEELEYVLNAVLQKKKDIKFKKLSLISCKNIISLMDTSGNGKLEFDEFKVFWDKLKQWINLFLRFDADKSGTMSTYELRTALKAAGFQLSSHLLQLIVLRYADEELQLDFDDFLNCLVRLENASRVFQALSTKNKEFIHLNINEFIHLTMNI
T3 sequence (P04632 1-268 partner): T1 sequence (P04632 1-268 partner)
Put plainly: Calpain inhibition, continuous fluorescence (FRET substrate) assay, calpain 9. It counts as biochemical. The settings on record: SensoLyte 520 FRET substrate, 25C. The essentials:
as §1

Assay [1] has as its system Calpain activity in SH-SY5Y cells. Put plainly: SH-SY5Y spectrin breakdown product (SBDP-150) western blot assay. The assay is classed as cell-based. Conditions: Homo sapiens, read-out: SH-SY5Y Spectrin IC50. For orientation: In western blotting, separated proteins are transferred to a membrane and probed.
Assay [2] has the same test system. Put plainly: SH-SY5Y Suc-LLVY-AMC fluorescence assay. The assay is classed as cell-based. The settings on record: Homo sapiens, read-out: SH-SY5Y + AMC IC50.
The mark [3] stands for this setting: SH-SY5Y cells, 25 uM A23187, SBDP-150 western blot.
Where [4] appears, read: SH-SY5Y cells, 100 uM Suc-LLVY-AMC.

`NC(=O)C(=O)C(Cc1ccccc1)NC(=O)c1cn(C(F)F)nc1-c1cccc2ccncc12` (stereo not drawn) [Compound 22, N-(4-AMINO-3,4-DIOXO-1-PHENYLBUTAN-2-YL)-1-(DIFLUOROMETHYL)-3-(ISOQUINOLIN-8-YL)-1H-PYRAZOLE-4-CARBOXAMIDE]: the IC50 against Human Calpain 1/NS1 is less than 3 µM; on Human Calpain 2/NS1 it was less than 3 µM; against Human Calpain 9/NS1 it was less than 3 µM; in assay [1] (setting [3]), less than 10 µM; in assay [2] (setting [4]), less than 10 µM.

`Cc1cc(-c2nsnc2C(=O)NC(Cc2ccccc2)C(=O)C(N)=O)c(C)o1` (stereo not drawn) [Compound 23, N-(4-AMINO-3,4-DIOXO-1-PHENYLBUTAN-2-YL)-4-(2,5-DIMETHYLFURAN-3-YL)-1,2,5-THIADIAZOLE-3-CARBOXAMIDE]: the IC50 is less than 3 µM against Human Calpain 1/NS1; less than 3 µM at Human Calpain 2/NS1; less than 3 µM against Human Calpain 9/NS1; less than 10 µM in assay [1] (setting [3]); less than 10 µM in assay [2] (setting [4]).

`Cc1cc(-c2nn(C(F)F)cc2C(=O)NC(Cc2ccccc2)C(=O)C(N)=O)c(C)o1` (stereo not drawn) [Compound 24, N-(4-AMINO-3,4-DIOXO-1-PHENYLBUTAN-2-YL)-1-(DIFLUOROMETHYL)-3-(2,5-DIMETHYLFURAN-3-YL)-1H-PYRAZOLE-4-CARBOXAMIDE]: the IC50 against Human Calpain 1/NS1 was less than 3 µM; against Human Calpain 2/NS1, less than 3 µM; against Human Calpain 9/NS1, less than 3 µM; in assay [1] (setting [3]), 10 to 25 µM; in assay [2] (setting [4]) it was less than 10 µM.

With `Cc1occc1-c1nn(C(F)F)cc1C(=O)NC(Cc1ccccc1)C(=O)C(N)=O` (stereo not drawn) [Compound 26, N-(4-AMINO-3,4-DIOXO-1-PHENYLBUTAN-2-YL)-1-(DIFLUOROMETHYL)-3-(2-METHYLFURAN-3-YL)-1H-PYRAZOLE-4-CARBOXAMIDE], the IC50 is less than 3 µM on Human Calpain 1/NS1; less than 3 µM against Human Calpain 2/NS1; less than 3 µM against Human Calpain 9/NS1; less than 10 µM in assay [1] (setting [3]); less than 10 µM in assay [2] (setting [4]).

Turning to `Cc1cc(C(=O)NC(Cc2ccccc2)C(=O)C(N)=O)nn1-c1ncc2ccccc2n1` (stereo not drawn) [Compound 27, N-(4-AMINO-3,4-DIOXO-1-PHENYLBUTAN-2-YL)-5-METHYL-1-(QUINAZOLIN-2-YL)-1H-PYRAZOLE-3-CARBOXAMIDE], the IC50 against Human Calpain 1/NS1 was more than 10 µM; at Human Calpain 2/NS1, 3 to 10 µM; against Human Calpain 9/NS1, 3 to 10 µM; in assay [1] (setting [3]), more than 25 µM; in assay [2] (setting [4]), less than 10 µM.

`Cc1occc1-c1nn(C)cc1C(=O)NC(Cc1ccccc1)C(=O)C(N)=O` (stereo not drawn) [Compound 28, N-(4-AMINO-3,4-DIOXO-1-PHENYLBUTAN-2-YL)-1-METHYL-3-(2-METHYLFURAN-3-YL)-1H-PYRAZOLE-4-CARBOXAMIDE]: the IC50 is less than 3 µM against Human Calpain 1/NS1; less than 3 µM against Human Calpain 2/NS1; less than 3 µM at Human Calpain 9/NS1; more than 25 µM in assay [1] (setting [3]); less than 10 µM in assay [2] (setting [4]).

On to `Cc1cc(C(=O)NC(Cc2ccccc2)C(=O)C(N)=O)nn1-c1ncc(-c2ccccc2)cn1` (stereo not drawn) [Compound 29, N-(4-AMINO-3,4-DIOXO-1-PHENYLBUTAN-2-YL)-5-METHYL-1-(5-PHENYLPYRIMIDIN-2-YL)-1H-PYRAZOLE-3-CARBOXAMIDE], for which the half-maximal inhibitory concentration (IC50) was 3 to 10 µM at Human Calpain 1/NS1; less than 3 µM on Human Calpain 2/NS1; 3 to 10 µM at Human Calpain 9/NS1; more than 25 µM in assay [1] (SH-SY5Y); less than 10 µM in assay [2] (SH-SY5Y).

Turning to `Cc1cc(C(=O)NC(Cc2ccccc2)C(=O)C(N)=O)n(-c2ncc(-c3ccccc3)cn2)n1` (stereo not drawn) [Compound 30, N-(4-AMINO-3,4-DIOXO-1-PHENYLBUTAN-2-YL)-3-METHYL-1-(5-PHENYLPYRIMIDIN-2-YL)-1H-PYRAZOLE-5-CARBOXAMIDE], the IC50 is less than 3 µM on Human Calpain 1/NS1; less than 3 µM against Human Calpain 2/NS1; less than 3 µM against Human Calpain 9/NS1; less than 10 µM in assay [1] (SH-SY5Y); more than 25 µM in assay [2] (SH-SY5Y).

As to `Cn1cc(C(=O)NC(Cc2ccccc2)C(=O)C(N)=O)c(-c2cccc3ncoc23)n1` (stereo not drawn) [Compound 31, N-(4-AMINO-3,4-DIOXO-1-PHENYLBUTAN-2-YL)-3-(BENZO[D]OXAZOL-7-YL)-1-METHYL-1H-PYRAZOLE-4-CARBOXAMIDE], the IC50 at Human Calpain 1/NS1 is less than 3 µM; against Human Calpain 2/NS1 it was less than 3 µM; against Human Calpain 9/NS1 it was less than 3 µM; in assay [1] (setting [3]), less than 10 µM; in assay [2] (setting [4]), less than 10 µM.

For `Cn1cc(C(=O)NC(Cc2ccccc2)C(=O)C(N)=O)c(-c2cccc3c2cnn3C)n1` (stereo not drawn) [Compound 32, N-(4-AMINO-3,4-DIOXO-1-PHENYLBUTAN-2-YL)-1-METHYL-3-(1-METHYL-1H-INDAZOL-4-YL)-1H-PYRAZOLE-4-CARBOXAMIDE], the IC50 against Human Calpain 1/NS1 was less than 3 µM; against Human Calpain 2/NS1, less than 3 µM; on Human Calpain 9/NS1 it was less than 3 µM; in assay [1] (setting [3]), 10 to 25 µM; in assay [2] (setting [4]), 10 to 25 µM.

For `Cn1ncc2cccc(-c3nn(C(F)F)cc3C(=O)NC(Cc3ccccc3)C(=O)C(N)=O)c21` (stereo not drawn) [Compound 34, N-(4-AMINO-3,4-DIOXO-1-PHENYLBUTAN-2-YL)-1-(DIFLUOROMETHYL)-3-(1-METHYL-1H-INDAZOL-7-YL)-1H-PYRAZOLE-4-CARBOXAMIDE], the IC50 on Human Calpain 1/NS1 is less than 3 µM; on Human Calpain 2/NS1 it was less than 3 µM; against Human Calpain 9/NS1, less than 3 µM; in assay [1] (setting [3]) it was 10 to 25 µM; in assay [2] (setting [4]) it was less than 10 µM.

Regarding `Cn1cc(C(=O)NC(Cc2ccccc2)C(=O)C(N)=O)c(-c2cccc3oc(=O)[nH]c23)n1` (stereo not drawn) [Compound 35, N-(4-AMINO-3,4-DIOXO-1-PHENYLBUTAN-2-YL)-1-METHYL-3-(2-OXO-2,3-DIHYDROBENZO[D]OXAZOL-4-YL)-1H-PYRAZOLE-4-CARBOXAMIDE], the half-inhibitory concentration (IC50) against Human Calpain 1/NS1 is less than 3 µM; against Human Calpain 2/NS1 it was less than 3 µM; on Human Calpain 9/NS1 it was less than 3 µM; in assay [1] (setting [3]), less than 10 µM; in assay [2] (setting [4]), less than 10 µM.

The term IC50 denotes the midpoint of a concentration-inhibition curve.
